Laboratory results reported in patent publication US20210163443A1, “Febrifugine Derivatives” (BRISTOL-MYERS SQUIBB COMPANY, priority 2019, published 2021).
Where two headings read alike, the source gives them in different places.

Legend:
[1] = target: T1, human ProRS (prolyl tRNA synthetase moiety of glutamyl prolyl tRNA synthetase, EPRS) (Homo sapiens, UniProt P07814); assay: Assay for inhibitors of prolyl tRNA synthetase activity (ProRS assay, labeled proline incorporation); format: biochemical
T1 construct: The prolyl tRNA synthetase moiety (ProRS) in the cDNA of glutamyl prolyl tRNA synthetase was subcloned; 6xHis (N, cleaved yes); made in house; host or cells: E. coli BL21 (DE3)
T1 sequence (P07814 1007-1512 limits assumed): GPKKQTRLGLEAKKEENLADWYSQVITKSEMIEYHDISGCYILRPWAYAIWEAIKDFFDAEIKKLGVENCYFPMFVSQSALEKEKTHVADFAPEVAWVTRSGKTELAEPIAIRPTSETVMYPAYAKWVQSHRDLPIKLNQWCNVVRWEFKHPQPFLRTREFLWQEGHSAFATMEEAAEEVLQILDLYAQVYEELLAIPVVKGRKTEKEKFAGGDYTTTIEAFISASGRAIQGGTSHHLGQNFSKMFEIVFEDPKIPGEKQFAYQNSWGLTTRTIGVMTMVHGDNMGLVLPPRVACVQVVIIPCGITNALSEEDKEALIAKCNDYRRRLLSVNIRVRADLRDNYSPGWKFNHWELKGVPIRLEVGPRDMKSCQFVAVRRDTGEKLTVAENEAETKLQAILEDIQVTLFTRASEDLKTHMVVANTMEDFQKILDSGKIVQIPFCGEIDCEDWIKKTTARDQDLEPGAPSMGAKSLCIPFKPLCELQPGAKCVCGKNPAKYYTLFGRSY
Procedure, shortened: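 Biotinylated N-His-tagged human ProRS (20 nM) from E. coli, with Tris-Cl pH 7.5, 2 mM DTT, 5 mM ATP, MgCl2, bovine tRNA; compounds (10 μM to 0.5 nM) preincubated 15 min on ice. Started with proline (3.96 μM unlabeled, 1.04 μM labeled), 10 min at 37 °C, TCA-precipitated and scintillation-counted; IC50 from 4-parameter fit.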

[2] = tested on: Rat hepatocytes; assay: GSH trapping assay in rat hepatocytes; format: in vitro ADME; conditions: 30 μM, 24 hr incubation, LC-MS
Method: Rat hepatocytes were isolated from male Sprague-Dawley rats (Vivo Biotech Ltd, HYD, India), weighing 230 to 280 g by the two step collagenase perfusion method (seglen, 1976; Berry M N and Friend D S.1969). Rat hepatocytes were cultured in Dulbecco's Modified Eagle's Medium (DMEM, Gibco®, USA) supplemented with 10^−6 M dexamethasone (Gibco®), 5% fetal bovine serum (Gibco®) and cocktail-A mix (CM3000, Gibco®) containing HEPES buffer (PH 7.4), GlutaMAX™, human recombinant insulin, penicillin and streptomycin. Initial cell viability assessed by Trypanblue stain 0.4% (Sigma, UK) and viability more than 80% were considered for culturing. Hepatocytes were seeded in 96 well type-I collagen coated plates (Gibco®) at 4×10^4 cells/well in 100 μL of the culture medium and incubated at 37° C. in 5% CO2 and 95% relative humidity (RH) for 4 hr of cell attachment.
After 4 hr incubation, rat hepatocytes were washed twice with pre-warmed (37° C.) DMEM incubation medium supplemented with 10^−7 M dexamethasone and cell maintenance cocktail-B (CM4000, Gibco®) solution to remove unattached cells. Post washing hepatocytes were treated with test and reference compounds in incubation medium at single concentration (30 μM) in duplicate and incubate further for 24 hr at 37° C. with 5% CO2 and 95% RH. The final concentration of DMSO in medium was 0.5%.
Post 24 hr incubation, hepatocyte samples were quenched with equal volumes of acetonitrile containing 0.1% formic acid followed by vortex mix, sonicate and centrifuge at 12000 rpm at room temperature for 5 min. Supernatant samples were analyzed for GSH adducts on a C18 reverse-phase column (Xbridge™ Shield, C18, 4.6×150 mm, 3.5 μm) with solvent A (10 mM ammonium formate and 0.1% formic acid/water) and solvent B (0.1% formic acid/acetonitrile).
The column was eluted with 5% B for 5 min and then with a linear gradient to 20% B over 10 min and it was maintained up to 15 min, then it was increased linearly to 40% B up to 27 min and then increase to 90% B up to 29 min, and then equilibrate back the column to 5% B up to 33 min at a flow rate of 0.6 ml/min. The column effluent was directed into the ESI source of a LTQ Velos Orbitrap mass spectrometer (Thermo Fisher Scientific, San Jose, Calif.). The ESI conditions were as follows: sheath gas flow rate, 40 arbitrary units; auxiliary gas, 30 arbitrary units; spray voltage, 4.5 kV; capillary temperature, 230° C.; capillary voltage, 30 V; and tube lens offset, 25 V. Data were acquired in positive ion mode using Xcalibur software (Thermo Fisher Scientific) with one full scan followed by two data-dependent scans of the most intense and the second most intense ions. During the data interpretation the characteristic fragments of neutral loss of glycine (75.0320 Da), pyroglutamic acid (129.0426 Da) and loss of neutral moiety GSH (307.0838 Da) and/or a specific fragment of (GSH+H)^+ (m/z 308.0911) were monitored. Finally the fragments ions with m/z e.g. 179.0485, 177.0328 and 162.0219 Da, which were derived from the glutathione moiety were used to report GSH positive results.

[3] = in vivo; cited from earlier work
[4] = cited from earlier work
[5] = human ProRS 20 nM, 10 min at 37° C., read-out: EPRS IC50

Row | SMILES | IC50 [1, 5] [nM] | GSH adduct formation [2] | IC50 [1] [nM] | anti-fibrotic properties [3] | toxicity in humans [4]
1 | Cc1cc(Br)cc2c(=O)n(CC(=O)C[C@H]3NCCC[C@@H]3O)cnc12.Cl [Example 3, 6-Bromo-3-{3-[(2R,3S)-3-hydroxypiperidin-2-yl]-2-oxopropyl}-8-methylquinazolin-4(3H)-one hydrochloride] | 4 | Negative | – | – | –
2 | Cc1cc(Cl)cc2c(=O)n(C[C@@H](O)C[C@H]3NCCC[C@@H]3O)cnc12.Cl [Example 30, 6-Chloro-3-{(S)-2-hydroxy-3-[(2R,3S)-3-hydroxypiperidin-2-yl]propyl}-8-methylquinazolin-4(3H)-one hydrochloride] | 19 | Negative | – | – | –
3 | Cc1cc2ncn(C[C@@H](O)C[C@H]3NCCC[C@@H]3O)c(=O)c2cc1Cl.Cl [Example 31, 6-Chloro-3-{(S)-2-hydroxy-3-[(2R,3S)-3-hydroxypiperidin-2-yl]propyl}-7-methylquinazolin-4(3H)-one hydrochloride] | – | Negative (detected by mass only) | 17 | – | –
4 | Cc1cc2ncn(C[C@@H](O)C[C@H]3NCCC[C@@H]3O)c(=O)c2cc1F.Cl [Example 32, 6-Fluoro-3-{(S)-2-hydroxy-3-[(2R,3S)-3-hydroxypiperidin-2-yl]propyl}-7-methylquinazolin-4(3H)-one hydrochloride] | 55 | Negative | – | – | –
5 | COc1cc2ncn(C[C@@H](O)C[C@H]3NCCC[C@@H]3O)c(=O)c2cc1Cl.Cl [Example 33, 6-Chloro-3-{(S)-2-hydroxy-3-[(2R,3S)-3-hydroxypiperidin-2-yl]propyl}-7-methoxyquinazolin-4(3H)-one hydrochloride] | 116 | Negative | – | – | –
6 | Cl.O=c1c2c(F)cccc2ncn1C[C@@H](O)C[C@H]1NCCC[C@@H]1O [Example 40, 5-Fluoro-3-{(S)-2-hydroxy-3-[(2R,3S)-3-hydroxypiperidin-2-yl]propyl}quinazolin-4(3H)-one hydrochloride] | 302 | Negative | – | – | –
7 | CCc1cc(Br)cc2c(=O)n(C[C@@H](O)C[C@H]3NCCC[C@@H]3O)cnc12.Cl [Example 48, 6-Bromo-8-ethyl-3-{(S)-2-hydroxy-3-[(2R,3S)-3-hydroxypiperidin-2-yl]propyl}quinazolin-4(3H)-one hydrochloride] | 83 | Negative | – | – | –
8 | Cl.O=c1c2c(-c3cccc(F)c3)cccc2ncn1C[C@@H](O)C[C@H]1NCCC[C@@H]1O [Example 49] | – | Negative | – | – | –
9 | Cc1cc(Cl)cc2c(=O)n(C[C@@H]3C[C@@H]4[C@@H](O)CCCN4CO3)cnc12 [Example 72, 6-Chloro-3-{[(3S,4aR,5S)-5-hydroxyhexahydro-1H,3H-pyrido[1,2-c][1,3]oxazin-3-yl]methyl}-8-methylquinazolin-4(3H)-one] | > 10000 | – | – | – | –
10 | O=C(CC1NCCCC1O)Cn1cnc2cc(Br)c(Cl)cc2c1=O (stereo not drawn) [Halofuginone, 7-bromo-6-chloro-3-[3-(3-hydroxy-2-piperidinyl)-2-oxopropyl]-4(3H)-quinazolinone] | – | – | – | anti-fibrotic properties in vivo | nausea, vomiting, and fatigue, and possibly bleeding complications
